Measurements as given in PMC10090446, “Population pharmacokinetic analysis and dosing optimization of polymyxin B in critically ill patients” (Frontiers in Pharmacology, 2023).
Positions of bridges follow the written chain, without caps; N, C: chain ends. Non-standard residues stand in square brackets, D forms with d. Residues, ends and D or L forms follow the SMILES beside them. *: point of attachment. X1 = CC[C@H](C)CCCCC(=O)*; Dab = NCC[C@H](N)C(=O)O

Assays:
[1] = used to convert fAUC/MIC target; ref Sandri et al., 2013; cited from earlier work
Method: Combined with population PK/PD feature parameters of antibiotics medicines, the PTA of PK/PD target for a dosing regimen at a predetermined minimum inhibitory concentration (MIC) was performed by Monte Carlo simulation. According to the 2019 International Consensus Guidelines ([Tsuji et al., 2019]), the target of fAUC/MIC for polymyxins was around 20, and the unbound fraction was determined to be 0.42 ([Sandri et al., 2013]). Thus AUC/MIC ≥ 50 was set as the efficacy target, as well as the MIC range was set at 0.25–4 mg L^-1 ([Satlin et al., 2020]). Additionally, considering the nephrotoxicity ...

[2] = Steady-state plasma concentrations of polymyxin B (total of B1, B2, B1-Ile) by LC-MS/MS; type: in vivo; details: human, iv, read-out: OUT (observed polymyxin B plasma concentration)
Text: We gather data from critically ill patients (≥18 years old) who were given intravenous drip polymyxin B treatment with blood concentration monitoring at the hospital from November 2021 to September 2022. The attending physician decided to administer polymyxin B. At the same time, patients who received continuous renal replacement therapy (CRRT) (n = 10) or extracorporeal membrane oxygenation (ECMO) (n = 2) at the time of blood collection were excluded. Patients’ information, including gender, age, WT, serum creatinine (Scr), CCR, ALB, APACHE-II, infection diagnosis, and pathogenic bacteria, were obtained from the electronic system for medical records. CCR was generated by adopting the Cockcroft—Gault equation with WT and age ([Cucci et al., 2022]). The Ethical Committees of the Second Affiliated Hospital of the South China University of Technology authorized the study (K-2022-020-01).
Patients were treated with polymyxin B, and plasma samples were collected ≥ 48 h after the treatment. Each patient contributed clinical samples, of which 37.5% (n = 24) were sampled with troughs (within 1 h before administration), 35.9% (n = 23) were sampled with peaks (within 1 h after the end of the infusion), and 26.6% (n = 17) were sampled at 6-8 h after the infusion. The dosing regimens of polymyxin B were a loading dose of 100 mg–150 mg and a maintenance dose of 50 mg–75 mg q12h, and the infusion duration was about 1–2 h. In preparation for analysis, samples were centrifuged for 10 min at 3000 r min^-1 after collection, and the upper plasma after centrifugation was stored at −20°C.
According to previous studies, total polymyxin B1, polymyxin B2, and polymyxin B1-Ile concentrations in human blood plasma were quantified using LC-MS/MS ([Meng et al., 2016]; [Hee et al., 2017]). The standard used in our experiments was the USP standard with the batch number of R104F0. The chromatographic column was the Kinetex C18 (3 μm × 2.1 mm×100 mm. Phenomenex). A: B mobile phase was 0.1% formic acid to acetonitrile. With changes in the linear velocity ratio, gradient elution was as follows: 15% −15% B, 0–2.0 min; 15%–10% B, 2.01–4.0 min; 10%–30% B, 4.01–5.0 min; 15% B, 5.01 min; and 15%–15% B, 5.02–10 min. The flow rate was constrained to 0.8 mL min^-1, and the column temperature was set to 40°C. The parent/daughter ion mass ratios used in the mass spectrometry were m/z 602.6/241.2 (polymyxin B1 and B1-Ile) and m/z 595.6/202.1 (polymyxin B2). Plasma samples (100 μL) were collected from centrifuged blood samples, mixed with 500 μL precipitant (acetonitrile with 6.67% formic acid) and vortexed well for 1 min. The lower limit of quantification (LLOQ) of the bioanalytical method used for quantifying polymyxin B1, B2, and B1-Ile concentrations was 0.19, 0.02 and 0.02 mg L^-1, respectively. The linear relationships of polymyxin B1, B2, and B1-Ile concentrations in the range of 0.19–24.13 mg L^-1, 0.02–2.7 mg L^-1 and 0.02–2.38 mg L^-1 were considered good (R^2 = 0.99677, R^2 = 0.99656, R^2 = 0.99484) and the accuracy was within 95.3%–105.3%, 92.2%–104.8%, and 95.8%–105.4%. […] Finally, 200 μL of the supernatant from the centrifugation of the combination at 14,000 r min^-1 for 10 min was employed to measure the amounts of polymyxin B.

Q: Which unbound fraction [1] does the source give for `CC[C@H](C)CCCCC(=O)N[C@@H](CCN)C(=O)N[C@H](C(=O)N[C@@H](CCN)C(=O)N[C@H]1CCNC(=O)[C@H]([C@@H](C)O)NC(=O)[C@H](CCN)NC(=O)[C@H](CCN)NC(=O)[C@H](CC(C)C)NC(=O)[C@@H](Cc2ccccc2)NC(=O)[C@H](CCN)NC1=O)[C@@H](C)O` [polymyxin B] (X1-[Dab]T[Dab][Dab][Dab][dF]L[Dab][Dab]T; lactam 4-C) here?
A: 0.42

Q: And the level at 47.67 h ([2]; 50 mg, patient ID 2, TIME 47.67, DOSE 50 every 12 from 0 to 36, DUR 1, WT 56, CCR 34.05, ALB 30.1, APACHE 20, single sample)?
A: 3020 ng/mL

Q: And the level at 50 h ([2]; 50 mg, patient ID 6, TIME 50, DOSE 50 every 12 from 0 to 48, DUR 1, WT 60, CCR 81.34, ALB 36.6, APACHE 18, single sample)?
A: 4480 ng/mL

Q: And the level at 300 h ([2]; 50 mg, patient ID 7, TIME 300, DOSE 50 from 0, ADDL 25, II 12, DUR 1, WT 52, CCR 121.16, ALB 32.1, APACHE 21, single sample)?
A: 2640 ng/mL

Q: What about the level at 301 h ([2]; 50 mg, patient ID 7, TIME 301, DOSE 50 from 0, ADDL 25, II 12, DUR 1, WT 52, CCR 121.16, ALB 32.1, APACHE 21, single sample) of the same molecule?
A: 7720 ng/mL

Q: What about the level at 306.5 h ([2]; 50 mg, patient ID 7, TIME 306.5, DOSE 50 from 0, ADDL 25, II 12, DUR 1, WT 52, CCR 121.16, ALB 32.1, APACHE 21, single sample) of the same molecule?
A: 4180 ng/mL

Q: And the level at 133.6 h ([2]; 50 mg, patient ID 9, TIME 133.6, DOSE 50 from 0, ADDL 11, II 12, DUR 1, WT 55, CCR 34.79, ALB 30.8, APACHE 15, single sample)?
A: 3740 ng/mL

Q: What about the level at 139 h ([2]; 50 mg, patient ID 9, TIME 139, DOSE 50 from 0, ADDL 11, II 12, DUR 1, WT 55, CCR 34.79, ALB 30.8, APACHE 15, single sample) of the same molecule?
A: 3180 ng/mL

Q: And the level at 145 h ([2]; 50 mg, patient ID 9, TIME 145, DOSE 50 from 0, ADDL 11, II 12, DUR 1, WT 55, CCR 34.79, ALB 30.8, APACHE 15, single sample)?
A: 2890 ng/mL

Q: And the level at 195 h ([2]; 50 mg, patient ID 15, TIME 195, DOSE 50 every 12 from 133 (DUR 1, ADDL 11), WT 50, CCR 35.85, ALB 29.5, APACHE 39, single measurement)?
A: 4600 ng/mL

Q: And the level at 207 h ([2]; 50 mg, patient ID 15, TIME 207, DOSE 50 every 12 from 133 (DUR 1, ADDL 11), WT 50, CCR 35.85, ALB 29.5, APACHE 39, single measurement)?
A: 2250 ng/mL

Q: What about the level at 266.25 h ([2]; 50 mg, patient ID 15, TIME 266.25, DOSE 50 every 12 from 133 (DUR 1, ADDL 11), WT 50, CCR 35.85, ALB 29.5, APACHE 39, single measurement) of the same molecule?
A: 4870 ng/mL

Q: And the level at 277 h ([2]; 50 mg, patient ID 15, TIME 277, DOSE 50 every 12 from 133 (DUR 1, ADDL 11), WT 50, CCR 35.85, ALB 29.5, APACHE 39, single measurement)?
A: 2420 ng/mL

Q: And the level at 169.25 h ([2]; 50 mg, patient ID 16, TIME 169.25, DOSE 50 every 12 from 0 (DUR 2, ADDL 14), WT 65, CCR 75.18, ALB 32, APACHE 31, single measurement)?
A: 6980 ng/mL

Q: What about the level at 174 h ([2]; 50 mg, patient ID 16, TIME 174, DOSE 50 every 12 from 0 (DUR 2, ADDL 14), WT 65, CCR 75.18, ALB 32, APACHE 31, single measurement) of the same molecule?
A: 2970 ng/mL

Q: And the level at 179 h ([2]; 50 mg, patient ID 16, TIME 179, DOSE 50 every 12 from 0 (DUR 2, ADDL 14), WT 65, CCR 75.18, ALB 32, APACHE 31, single measurement)?
A: 2460 ng/mL

Q: And the level at 120 h ([2]; 50 mg, patient ID 17, TIME 120, DOSE 50 every 12 from 0 (DUR 1, ADDL 10), WT 75, CCR 55.08, ALB 38.8, APACHE 22, single measurement)?
A: 4530 ng/mL

Q: And the level at 121.48 h ([2]; 50 mg, patient ID 17, TIME 121.48, DOSE 50 every 12 from 0 (DUR 1, ADDL 10), WT 75, CCR 55.08, ALB 38.8, APACHE 22, single measurement)?
A: 2350 ng/mL

Q: What about the level at 62.5 h ([2]; 50 mg, patient ID 18, TIME 62.5, DOSE 50 at 0, 12, 24, 36, 48, 60, DUR 2, WT 80, CCR 169.94, ALB 41.5, APACHE 29, single measurement) of the same molecule?
A: 4860 ng/mL

Q: And the level at 66 h ([2]; 50 mg, patient ID 18, TIME 66, DOSE 50 at 0, 12, 24, 36, 48, 60, DUR 2, WT 80, CCR 169.94, ALB 41.5, APACHE 29, single measurement)?
A: 1800 ng/mL

Q: What about the level at 72 h ([2]; 50 mg, patient ID 18, TIME 72, DOSE 50 at 0, 12, 24, 36, 48, 60, DUR 2, WT 80, CCR 169.94, ALB 41.5, APACHE 29, single measurement) of the same molecule?
A: 839 ng/mL

Q: And the level at 97 h ([2]; 75 mg, patient ID 12, TIME 97, DOSE 75 from 0, ADDL 9, II 12, DUR 1, WT 60, CCR 104.47, ALB 33.9, APACHE 24, single sample)?
A: 9560 ng/mL

Q: What about the level at 102 h ([2]; 75 mg, patient ID 12, TIME 102, DOSE 75 from 0, ADDL 9, II 12, DUR 1, WT 60, CCR 104.47, ALB 33.9, APACHE 24, single sample) of the same molecule?
A: 4840 ng/mL

Q: And the level at 108 h ([2]; 75 mg, patient ID 12, TIME 108, DOSE 75 from 0, ADDL 9, II 12, DUR 1, WT 60, CCR 104.47, ALB 33.9, APACHE 24, single sample)?
A: 2990 ng/mL

Q: What about the level at 74.33 h ([2]; 75 mg, patient ID 15, TIME 74.33, after DOSE 75 at 73 (DUR 1, ADDL 4, II 12), WT 50, CCR 35.85, ALB 29.5, APACHE 39, single measurement) of the same molecule?
A: 8900 ng/mL

Q: And the level at 217 h ([2]; 75 mg, patient ID 22, TIME 217, DOSE 75 every 12 from 0 (ADDL 18), DUR 1, WT 60, CCR 155.65, ALB 24.3, APACHE 30, single measurement)?
A: 3620 ng/mL

Q: What about the level at 222 h ([2]; 75 mg, patient ID 22, TIME 222, DOSE 75 every 12 from 0 (ADDL 18), DUR 1, WT 60, CCR 155.65, ALB 24.3, APACHE 30, single measurement) of the same molecule?
A: 2060 ng/mL

Q: And the level at 228 h ([2]; 75 mg, patient ID 22, TIME 228, DOSE 75 every 12 from 0 (ADDL 18), DUR 1, WT 60, CCR 155.65, ALB 24.3, APACHE 30, single measurement)?
A: 1060 ng/mL

Q: And the level at 60.5 h ([2]; patient ID 1, TIME 60.5, DOSE 100 at 0 then 50 every 12 to 48, DUR 1, WT 58, CCR 69.29, ALB 23.1, APACHE 30, single sample)?
A: 2270 ng/mL
